Blank lines part the entries; values can stand above or below the compound they belong to.
What was measured:
[1] = Long-term plasma exposure after a single SC ANA dose (56-day follow-up), plasma LC-MS/MS; type: in vivo, Sprague-Dawley rats; conditions: male SD rats, n = 5, 56-day follow-up
Procedure: To monitor the sustained release of SC ANA in the long term, 10 male SD rats were treated with a single dose of either 7.0 mg/kg (n = 5) or 35.0 mg/kg (n = 5). The rats were purchased from SPF Biotechnology Co. Ltd. (Beijing, China). Animals were acclimated to the test facility for at least three days, during which their general health was checked by veterinary staff or other authorized personnel. Animals were kept in polycarbonate cages containing absorbent corncob bedding, with a maintained temperature range of +20-25 °C and a 12-h light/dark cycle. Animals had access to food and drinking water ad libitum during acclimation and the experiment. At the end of the study, the rats were euthanized by exposure to an increasing concentration of CO2. […] The SC formulation was prepared by dissolving micronized ANA (5 μm particle size) in an oily triglyceride ester of saturated caprylic and capric fatty acids and glycerol (Miglyol® 810 N, IOI Oleo GmbH, Hamburg, Germany). […] To evaluate plasma concentration-time profiles, blood samples were collected from the jugular vein in EDTA tubes and stored at -70 °C until further analysis. […] In the second PK analysis in rats with a longer follow-up time, blood samples were collected at 0, 30 min, 1 […], and 56 d after dosage. SD rat plasma was analyzed for ANA, 3-OH-ANA, and RL603 concentrations by Pharmaron (Beijing, China). ANA, 3-hydroxy-anagrelide (CAS No. 733043-41-9, Cat. No. sc-206647, Santa Cruz Biotechnology, Inc., Dallas, TX), and RL603 (CAS No. 327602-34-6, Cat. No. sc-391661, Santa Cruz Biotechnology, Inc., Dallas, TX) were used as reference items in calibration standards and quality control (QC) samples. The HPLC and the MS/MS (LCMS-8060) instruments were both from SHIMADZU (Kyoto, Japan), and the column used was a Raptor Biphenyl column (2.7 μm, 50 × 2.1 mm, Restek, Bellefonte, PA). The desired serial concentrations of working solutions were achieved by diluting analyte stock solution with 50% acetonitrile in water. […] QC samples at 0.5, 1, 2, 50, and 800 ng/mL were prepared independently of those used for the calibration curves. These QC samples were prepared on the day of analysis in the same way as calibration standards. Carbamazepine (CAS No. 298-46-4, Sigma-Aldrich, St. Louis, MO) was used as an internal standard for all analytes. Altogether, 55 μL of standards, 55 μL of QC samples, and 55 μL of test samples (comprising 50 μL of plasma and 5 μL of blank solution) were added to 200 μL of acetonitrile containing an internal standard mixture to precipitate protein. The samples were then vortexed for 30 seconds. After centrifugation at 4000 × g (+4 °C) for 5 min, the supernatant was diluted threefold with water, and 2 μL of the diluted supernatant was injected into the LC/MS/MS system for quantitative analysis. The transitions were 256.00-198.90 m/z for anagrelide hydrochloride, 272.00-198.95 m/z for 3-hydroxy anagrelide, 216.00-198.95 m/z for RL603, and 237.20-194.10 m/z for carbamazepine. […] Plasma drug concentration-time profiles were drawn by the average plasma concentrations at specific time points using Microsoft Excel (Redmond, WA). […] Certara, Princeton, NJ) software. Averages of each variable were used when PK values were compared.

[2] = PK comparison between three administration routes (IV, PO, SC), plasma LC-MS/MS; type: in vivo, Sprague-Dawley rats; conditions: for Tmax: male, plasma, read-out: Tmax
Procedure: The rats were purchased from SPF Biotechnology Co. Ltd. (Beijing, China). Animals were acclimated to the test facility for at least three days, during which their general health was checked by veterinary staff or other authorized personnel. Animals were kept in polycarbonate cages containing absorbent corncob bedding, with a maintained temperature range of +20-25 °C and a 12-h light/dark cycle. Animals had access to food and drinking water ad libitum during acclimation and the experiment. At the end of the study, the rats were euthanized by exposure to an increasing concentration of CO2. […] The SC formulation was prepared by dissolving micronized ANA (5 μm particle size) in an oily triglyceride ester of saturated caprylic and capric fatty acids and glycerol (Miglyol® 810 N, IOI Oleo GmbH, Hamburg, Germany). […] To evaluate plasma concentration-time profiles, blood samples were collected from the jugular vein in EDTA tubes and stored at -70 °C until further analysis. […] In the second PK analysis in rats with a longer follow-up time, blood samples were collected at 0, 30 min, 1 […], and 56 d after dosage. SD rat plasma was analyzed for ANA, 3-OH-ANA, and RL603 concentrations by Pharmaron (Beijing, China). ANA, 3-hydroxy-anagrelide (CAS No. 733043-41-9, Cat. No. sc-206647, Santa Cruz Biotechnology, Inc., Dallas, TX), and RL603 (CAS No. 327602-34-6, Cat. No. sc-391661, Santa Cruz Biotechnology, Inc., Dallas, TX) were used as reference items in calibration standards and quality control (QC) samples. The HPLC and the MS/MS (LCMS-8060) instruments were both from SHIMADZU (Kyoto, Japan), and the column used was a Raptor Biphenyl column (2.7 μm, 50 × 2.1 mm, Restek, Bellefonte, PA). The desired serial concentrations of working solutions were achieved by diluting analyte stock solution with 50% acetonitrile in water. […] These QC samples were prepared on the day of analysis in the same way as calibration standards. Carbamazepine (CAS No. 298-46-4, Sigma-Aldrich, St. Louis, MO) was used as an internal standard for all analytes. Altogether, 55 μL of standards, 55 μL of QC samples, and 55 μL of test samples (comprising 50 μL of plasma and 5 μL of blank solution) were added to 200 μL of acetonitrile containing an internal standard mixture to precipitate protein. The samples were then vortexed for 30 seconds. After centrifugation at 4000 × g (+4 °C) for 5 min, the supernatant was diluted threefold with water, and 2 μL of the diluted supernatant was injected into the LC/MS/MS system for quantitative analysis. The transitions were 256.00-198.90 m/z for anagrelide hydrochloride, 272.00-198.95 m/z for 3-hydroxy anagrelide, 216.00-198.95 m/z for RL603, and 237.20-194.10 m/z for carbamazepine. […] Plasma drug concentration-time profiles were drawn by the average plasma concentrations at specific time points using Microsoft Excel (Redmond, WA). […] Certara, Princeton, NJ) software. Averages of each variable were used when PK values were compared.

[3] = analyte in plasma after single SC ANA dose 7 mg/kg
[4] = analyte in plasma after single SC ANA dose 35 mg/kg
[5] = Sprague-Dawley, rat, analyte in plasma after single SC ANA dose 7 mg/kg
[6] = Sprague-Dawley, rat, analyte in plasma after single SC ANA dose 35 mg/kg
[7] = Sprague-Dawley, rat, analyte in plasma after single ANA dose 0.5 mg/kg IV, male SD rats, n = 3, mean ± SD
[8] = Sprague-Dawley, rat, analyte in plasma after single ANA dose 2.5 mg/kg PO, male SD rats, n = 3, mean ± SD

AUCinf [1, 3]: 699.77 ± 705.45 ng·h/mL
AUClast [1, 3]: 86.57 ± 60.96 ng·h/mL
Cmax [1, 3]: 0.46 ± 0.09 ng/mL
T1/2 [1, 3]: 1099 ± 945.8 h
Tmax [1, 3]: 19.00 ± 35.34 h
AUCinf [1, 4]: 2492.52 ± 2459.44 ng·h/mL
AUClast [1, 4]: 563.51 ± 106.90 ng·h/mL
Cmax [1, 4]: 1.75 ± 0.61 ng/mL
T1/2 [1, 4]: 377.8 ± 200 h
Tmax [1, 4]: 46.00 ± 95.07 h
SMILES: O=C1NC2=Nc3ccc(Cl)c(Cl)c3CN2C1O (centres unmarked) [3-Hydroxy-anagrelide, 3′-hydroxy-anagrelide]

AUC(0-inf) [1, 5]: 1530 ± 1540 ng·h/mL
AUC(0-t) [1, 5]: 351 ± 85.7 ng·h/mL
half-life [1, 5]: 895 h
Cmax ([1]; Sprague-Dawley, rat, analyte in plasma after single SC ANA dose 7 mg/kg, read-out: Cmax): 1.08 ± 0.26 ng/mL
Tmax ([1]; Sprague-Dawley, rat, analyte in plasma after single SC ANA dose 7 mg/kg, read-out: Tmax): 19.6 ± 9.84 h
AUC(0-inf) [1, 6]: 2280 ± 1210 ng·h/mL
AUC(0-t) [1, 6]: 925 ± 141 ng·h/mL
half-life [1, 6]: 285 h
Cmax ([1]; Sprague-Dawley, rat, analyte in plasma after single SC ANA dose 35 mg/kg, read-out: Cmax): 2.4 ± 1.28 ng/mL
Tmax ([1]; Sprague-Dawley, rat, analyte in plasma after single SC ANA dose 35 mg/kg, read-out: Tmax): 92.8 ± 113 h
Cmax [2, 7]: 12.3 ± 2.85 ng/mL
half-life [2, 7]: 0.98 ± 0.24 h
AUC(0-inf) [2, 8]: 34.8 ± 9.94 ng·h/mL
AUC(0-t) [2, 8]: 24.9 ± 4.29 ng·h/mL
Cmax [2, 8]: 3.48 ± 1.01 ng/mL
half-life [2, 8]: 13.1 ± 5.29 h
plasma concentration (not detected above the quantifiable limit) ([2]; after SC ANA 1.0 mg/kg, SD rats): < 0.2 ng/mL
Tmax ([2]; Sprague-Dawley, rat, iv, 0.5 mg/kg, analyte in plasma after single ANA dose 0.5 mg/kg IV, male SD rats, n = 3, mean ± SD): 1 ± 0.87 h
Tmax ([2]; Sprague-Dawley, rat, po, 2.5 mg/kg, analyte in plasma after single ANA dose 2.5 mg/kg PO, male SD rats, n = 3, mean ± SD): 1.67 ± 0.58 h
SMILES: NC1=Nc2ccc(Cl)c(Cl)c2CN1 [RL603, 2‐amino‐5,6‐dichloro‐3,4‐dihydroquinazolin]

— article PMC11816618, “Pharmacokinetic profile and in vivo anticancer efficacy of anagrelide administered subcutaneously in rodents” (Drug Delivery, 2025)
